Assay [1] concerns phosphorylated 4E-BP1 Thr37/46 (p4E-BP1 Thr37/46), mTORC1 activity, PC3 cells. Description: mTOR target engagement assay, immunofluorescent cell-based, p4E-BP1 Thr37/46 readout (mTORC1 activity). Particulars: Homo sapiens, read-out: p4E-BP1 Thr37/46 IC50. The method, boiled down: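 Cell-based immunofluorescence in PC3 cells: serially diluted compounds (0.25% DMSO, 5% FBS) applied for ninety minutes at 37° C before fixation and overnight 4° C staining of p4E-BP1 Thr37/46. Untreated DMSO wells set maximal phosphorylation; IC50 obtained by logistic fitting.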

Assay [2] relates to phosphorylated AKT Ser473 (pAKT S473), mTORC2 activity, PC3 cells. Description: mTOR target engagement assay, immunofluorescent cell-based, pAKT S473 readout (mTORC2 activity). To be noted: Homo sapiens. The method, boiled down:
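After blocking, cells were stained overnight at 4 °C with anti-pAKT S473 antibody, then a fluorescent secondary; inhibition was read as reduced fluorescence intensity.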

Where [3] appears, read: PC-3, PC3 cells, compound treatment ninety minutes at 37° C.

Read-outs that look alike come from different tables or passages of the source.

With `Cn1nnc(-c2ccc(-c3cnn4c(N)c(S(C)(=O)=O)c([C@@H]5C[C@H]6CC[C@@H](C5)N6C(=O)c5nnc[nH]5)nc34)cn2)n1` [Compound 3.42, ((1R,3a,5S)-3-(7-amino-3-(6-(2-methyl-2H-tetrazol-5-yl)pyridin-3-yl)-6-(methylsulfonyl)pyrazolo[1,5-a]pyrimidin-5-yl)-8-azabicyclo[3.2.1]octan-8-yl)(4H-1,2,4-triazol-3-yl)methanone], the IC50 fell in the range of 1000 to 10000 nM in assay [1] (PC-3, Table 3-1, PC3 cells) and 100 to 1000 nM in assay [2] (PC-3, Table 3-1, PC3 cells).

As to `CC(=O)c1c([C@@H]2C[C@H]3CC[C@@H](C2)N3C(=O)c2nnc[nH]2)nc2c(-c3cnc(-c4cc[nH]n4)c(F)c3)cnn2c1N` [Compound 1.1.110, 1-(5-((1R,3s,5S)-8-(4H-1,2,4-triazole-3-carbonyl)-8-azabicyclo[3.2.1]octan-3-yl)-7-amino-3-(5-fluoro-6-(1H-pyrazol-3-yl)pyridin-3-yl)pyrazolo[1,5-a]pyrimidin-6-yl)ethanone], the IC50 in assay [1] (setting [3]) and in assay [2] (setting [3]) was 100 to 1000 nM in each case.

Take `CS(=O)(=O)c1c([C@@H]2C[C@H]3CC[C@@H](C2)N3C(=O)CO)nc2c(-c3ccc(-n4cccn4)nc3)cnn2c1N` [Compound 3.153, 1-((1R,3s,5S)-3-(3-(6-(1H-pyrazol-1-yl)pyridin-3-yl)-7-amino-6-(methylsulfonyl)pyrazolo[1,5-a]pyrimidin-5-yl)-8-azabicyclo[3.2.1]octan-8-yl)-2-hydroxyethanone]: the IC50 in assay [1] (PC-3, Table 3-1, PC3 cells) was 1000 to 10000 nM; in assay [2] (PC-3, Table 3-1, PC3 cells), 100 to 1000 nM.

Take `CC(=O)N1[C@@H]2CC[C@H]1C[C@H](c1nc3c(-c4ccc(-c5csc(C)n5)nc4)cnn3c(N)c1S(C)(=O)=O)C2` [Compound 3.200, 1-((1R,3s,5S)-3-(7-amino-6-(methylsulfonyl)-3-(6-(2-methylthiazol-4-yl)pyridin-3-yl)pyrazolo[1,5-a]pyrimidin-5-yl)-8-azabicyclo[3.2.1]octan-8-yl)ethanone]: the IC50 in assay [1] (PC-3, Table 3-1, PC3 cells) fell in the range of 1000 to 10000 nM; in assay [2] (PC-3, Table 3-1, PC3 cells), 1000 to 10000 nM.

As for `CCC(O)c1ccc(-c2cnn3c(N)c(S(C)(=O)=O)c([C@@H]4C[C@H]5CC[C@@H](C4)N5C(=O)c4nnc[nH]4)nc23)cn1` (stereo partly drawn) [Compound 7.26, ((1R,3s,5S)-3-(7-amino-3-(6-(1-hydroxypropyl)pyridin-3-yl)-6-(methylsulfonyl)pyrazolo[1,5-a]pyrimidin-5-yl)-8-azabicyclo[3.2.1]octan-8-yl)(4H-1,2,4-triazol-3-yl)methanone], the IC50 in assay [1] (PC-3, Table 7-2, PC3 cells) was in the range of 100 to 1000 nM; in assay [2] (PC-3, Table 7-2, PC3 cells) it was 100 to 1000 nM.

As to `CS(=O)(=O)c1c([C@@H]2C[C@H]3CC[C@@H](C2)N3C(=O)c2nnc[nH]2)nc2c(-c3ccc(C4(O)COC4)nc3)cnn2c1N` [Compound 7.48, ((1R,3s,5S)-3-(7-amino-3-(6-(3-hydroxyoxetan-3-yl)pyridin-3-yl)-6-(methylsulfonyl)pyrazolo [1,5-a]pyrimidin-5-yl)-8-azabicyclo[3.2.1]octan-8-yl)(4H-1,2,4-triazol-3-yl)methanone], the IC50 lay in the range of 1000 to 10000 nM in assay [1] (PC-3, Table 7-8, PC3 cells) and 1000 to 10000 nM in assay [2] (PC-3, Table 7-8, PC3 cells).

Take `CCN/C(=N\CCCN(C)C)n1ncc(C(=O)N2[C@@H]3CC[C@H]2C[C@H](c2nc4c(-c5ccc(-c6ccccc6F)nc5)cnn4c(N)c2S(C)(=O)=O)C3)n1` [Compound 8.46, (E)-4-((1R,3s,5S)-3-(7-amino-3-(6-(2-fluorophenyl)pyridin-3-yl)-6-(methylsulfonyl)pyrazolo[1,5-a]pyrimidin-5-yl)-8-azabicyclo[3.2.1]octane-8-carbonyl)-N′-(3-(dimethylamino)propyl)-N-ethyl-2H-1,2,3-triazole-2-carboximidamide]: the IC50 in assay [1] (PC-3, PC3 cells) is 100 to 1000 nM; in assay [2] (PC-3, PC3 cells), 1 to 100 nM.

In the case of `Cc1nc(N)ncc1C(=O)N1[C@@H]2CC[C@H]1C[C@H](c1nc3c(-c4ccc(-c5ccccc5)nc4)cnn3c(N)c1S(C)(=O)=O)C2` [Compound 3.137, (2-amino-4-methylpyrimidin-5-yl)((1R,3a,5S)-3-(7-amino-6-(methylsulfonyl)-3-(6-phenylpyridin-3-yl)pyrazolo[1,5-a]pyrimidin-5-yl)-8-azabicyclo[3.2.1]octan-8-yl)methanone], the IC50 was in the range of 1000 to 10000 nM in assay [1] (PC-3, Table 3-1, PC3 cells) and 1000 to 10000 nM in assay [2] (PC-3, Table 3-1, PC3 cells).

`CS(=O)(=O)c1c([C@@H]2C[C@H]3CC[C@@H](C2)N3C(=O)c2nc(N)n[nH]2)nc2c(-c3ccc(-c4ccccc4)nc3)cnn2c1N` [Compound 3.98, (3-amino-1H-1,2,4-triazol-5-yl)((1R,3s,5S)-3-(7-amino-6-(methylsulfonyl)-3-(6-phenylpyridin-3-yl)pyrazolo[1,5-a]pyrimidin-5-yl)-8-azabicyclo[3.2.1]octan-8-yl)methanone]: the IC50 lay in the range of 1 to 100 nM in assay [1] (PC-3, Table 3-1, PC3 cells) and 1 to 100 nM in assay [2] (PC-3, Table 3-1, PC3 cells).

`CC(=O)c1c([C@@H]2C[C@H]3CC[C@@H](C2)N3C(=O)c2nnc(C)[nH]2)nc2c(-c3ccc(-c4ccc(F)cc4)nc3)cnn2c1N` [Compound 1.1.160, 1-(7-amino-3-(6-(4-fluorophenyl)pyridin-3-yl)-5-((1R,3s,5S)-8-(5-methyl-4H-1,2,4-triazole-3-carbonyl)-8-azabicyclo[3.2.1]octan-3-yl)pyrazolo[1,5-a]pyrimidin-6-yl)ethanone]: the IC50 in assay [1] (setting [3]) was 100 to 1000 nM; in assay [2] (setting [3]) it was 1 to 100 nM.

Consider `CS(=O)(=O)c1c([C@@H]2C[C@H]3CC[C@@H](C2)N3C(=O)[C@H]2CCCN2)nc2c(-c3ccc(-c4ccccc4)nc3)cnn2c1N` [Compound 3.205], for which the IC50 lay in the range of 100 to 1000 nM in assay [1] (PC-3, Table 3-1, PC3 cells) and 100 to 1000 nM in assay [2] (PC-3, Table 3-1, PC3 cells).

On to `CC(=O)c1c([C@@H]2C[C@H]3CC[C@@H](C2)N3C(=O)c2cc[nH]c2)nc2c(-c3ccc(-c4ncc[nH]4)nc3)cnn2c1N` [Compound 6.11, 1-(3-(6-(1H-imidazol-2-yl)pyridin-3-yl)-5-((1R,3s,5S)-8-(1H-pyrrole-3-carbonyl)-8-azabicyclo[3.2.1]octan-3-yl)-7-aminopyrazolo[1,5-a]pyrimidin-6-yl)ethanone], for which the IC50 lay in the range of 1 to 100 nM in assay [1] (PC-3, Table 6-1, PC3 cells) and 1 to 100 nM in assay [2] (PC-3, Table 6-1, PC3 cells).

As to `CC(=O)c1c([C@@H]2C[C@H]3CC[C@@H](C2)N3C(=O)c2nnc[nH]2)nc2c(-c3ccc(-c4nn(C)cc4F)nc3)cnn2c1N` [Compound 1.1.106, 1-(5-((1R,3s,5S)-8-(4H-1,2,4-triazole-3-carbonyl)-8-azabicyclo[3.2.1]octan-3-yl)-7-amino-3-(6-(4-fluoro-1-methyl-1H-pyrazol-3-yl)pyridin-3-yl)pyrazolo[1,5-a]pyrimidin-6-yl)ethanone], the IC50 in assay [1] (setting [3]) and in assay [2] (setting [3]) was 1 to 100 nM throughout.

As for `COCc1c([C@@H]2C[C@H]3CC[C@@H](C2)N3C(=O)c2nnc[nH]2)nc2c(-c3ccc(-c4ccccc4)nc3)cnn2c1N` [Compound 5.4, ((1R,3s,5S)-3-(7-amino-6-(methoxymethyl)-3-(6-phenylpyridin-3-yl)pyrazolo[1,5-a]pyrimidin-5-yl)-8-azabicyclo[3.2.1]octan-8-yl)(4H-1,2,4-triazol-3-yl)methanone], the IC50 in assay [1] (setting [3]) and in assay [2] (setting [3]) was 1 to 100 nM in each case.

Take `COCCOCc1ccc(-c2cnn3c(N)c(S(C)(=O)=O)c([C@@H]4C[C@H]5CC[C@@H](C4)N5C(=O)c4nnc[nH]4)nc23)cn1` [Compound 7.32, ((1R,3s,5S)-3-(7-amino-3-(6-((2-methoxyethoxy)methyl)pyridin-3-yl)-6-(methylsulfonyl)pyrazolo [1,5-a]pyrimidin-5-yl)-8-azabicyclo[3.2.1]octan-8-yl)(4H-1,2,4-triazol-3-yl)methanone]: the IC50 in assay [1] (setting [3]) was 1000 to 10000 nM; in assay [2] (setting [3]), over 10000 nM.

Consider `CC(=O)c1c([C@@H]2C[C@H]3CC[C@@H](C2)N3C(=O)c2nnc[nH]2)nc2c(-c3ccc(N4NCCC4=O)nc3)cnn2c1N` [Compound 8.19, 2-(5-(5-((1R,3s,5S)-8-(4H-1,2,4-triazole-3-carbonyl)-8-azabicyclo[3.2.1]octan-3-yl)-6-acetyl-7-aminopyrazolo[1,5-a]pyrimidin-3-yl)pyridin-2-yl)pyrazolidin-3-one], for which the IC50 in assay [1] (PC-3, PC3 cells) lay in the range of 100 to 1000 nM; in assay [2] (PC-3, PC3 cells), 100 to 1000 nM.

In the case of `CC(=O)c1c([C@@H]2C[C@H]3CC[C@@H](C2)N3C(=O)c2nnc[nH]2)nc2c(-c3ccc([C@@H](C)O)cc3)cnn2c1N` [Compound 7.21, 1-(5-((1R,3s,5S)-8-(4H-1,2,4-triazole-3-carbonyl)-8-azabicyclo[3.2.1]octan-3-yl)-7-amino-3-(4-((R)-1-hydroxyethyl)phenyl)pyrazolo[1,5-a]pyrimidin-6-yl)ethanone], the IC50 in assay [1] (setting [3]) and in assay [2] (setting [3]) was 1 to 100 nM in each case.

As for `CS(=O)(=O)c1c([C@H]2CC3CC[C@H](C2)N3C(=O)c2cn[nH]n2)nc2c(-c3cnc4ccc(F)cc4c3)cnn2c1N` [Compound 3.177, ((1R,3s,5S)-3-(7-amino-3-(6-fluoroquinolin-3-yl)-6-(methylsulfonyl)pyrazolo[1,5-a]pyrimidin-5-yl)-8-azabicyclo[3.2.1]octan-8-yl)(2H-1,2,3-triazol-4-yl)methanone], the IC50 in assay [1] (PC-3, Table 3-1, PC3 cells) was 100 to 1000 nM; in assay [2] (PC-3, Table 3-1, PC3 cells) it was 100 to 1000 nM.

These data come from patent US9227971B2, “Pyrazolo[1,5-a]pyrimidine compounds as mTOR inhibitors” (Merck Sharp & Dohme Corp., priority 2010, dated 2016).
